Source: patent publication US20240182893A1, “INHIBITION OF FGR REDUCES FIBROSIS” (UNIVERSITY OF PITTSBURGH-OF THE COMMONWEALTH SYSTEM OF …, priority 2021, published 2024)
Where “and” joins values, the source holds several entries; their conditions need not be identical. Equal values may be shown once. Entries after “also recorded” stand apart in the source; their conditions may differ.

Tests used:
[1] = system: target cell line (bottom layer); experiment: Non-contact transwell coculture with sorted senescent cells from irradiated mouse lungs, profibrotic genes in target cell line; type: cell-based; settings: FIG. 14
From the text: FIG. 14. Upregulation of profibrotic genes in target cells by irradiated mouse lung senescent cells. In a noncontact transwell co-culture system, filter separated (19) sorted irradiated red and irradiated non-red mouse lung cells plated on top layer, there is significant induction of Tgf-β. Collagen 1a1 and collagen 3 in target cell line (bottom layer).
To establish that irradiated tdTOMp16+ senescent cells induce profibrotic genes in other cells, a C57BL/6 target cell line and a noncontact transwell co-culture system were used (Ejaz A et al. Stem Cells. 2019, 37, 791-802) (FIG. 14). Using the tdTOMp16+ stromal cell line, significant induction by RIS red cells of collagen 1al, collagen 3, and TGF-β in C57/B6 target cells was observed. The induction was abrogated by the Fgr inhibitor TL02-59 (Mukherjee A et al. Cell Death Discovery, 2021, 7, 349). It was confirmed that the findings in stromal cells also occur in lung. Red and non-red cells from 20 Gy irradiated tdTOMp16 mouse lungs were tested.

other similar kinases [2] = settings: cited from earlier work
[3] = system: mouse model of radiation-induced pulmonary fibrosis; experiment: Mouse model of radiation-induced pulmonary fibrosis (18 Gy), qPCR and staining of lungs; type: in vivo
Procedure: (§1) FIG. 47. […] Relative mRNA expression of profibrotic genes (Tgf-β, Ctgf, Collagen 1a1, Collagen 3 and Collagen 4), senescence biomarkers (p16 and p21) and tyrosine kinase Fgr was evaluated by qPCR from one lobe of mouse lungs in control, irradiated and treated with Fgr inhibitor TL02-59 post irradiation. Briefly, Mice were irradiated (18 Gy), and TL02-59 treated (10 mg/kg), 3/week at day 75 for 4 weeks. (n=4-13). Statistics was performed, and individual p values were calculated by unpaired t-test.
FIG. 48. Expression of Fgr and p16 from mouse lungs in control, irradiated, and treated with Fgr inhibitor TL02-59 post irradiation. […] Insets on the right from each group were magnified for clarity.
as §1, with “(n=4-13),” for “(n=4-13).”

Fgr [4] = biological target: T1, Fgr (Mus musculus, UniProt P14234); experiment: Western blot of Fgr phosphorylation in tdTOMp16+ cells (phospho-Fgr antibody); type: cell-based
T1 construct: endogenous in cells; host or cells: tdTOMp16+ mouse bone marrow stromal (MSC) cell line, irradiated, senescent tdTOM+ cells
T1 sequence (P14234 whole entry): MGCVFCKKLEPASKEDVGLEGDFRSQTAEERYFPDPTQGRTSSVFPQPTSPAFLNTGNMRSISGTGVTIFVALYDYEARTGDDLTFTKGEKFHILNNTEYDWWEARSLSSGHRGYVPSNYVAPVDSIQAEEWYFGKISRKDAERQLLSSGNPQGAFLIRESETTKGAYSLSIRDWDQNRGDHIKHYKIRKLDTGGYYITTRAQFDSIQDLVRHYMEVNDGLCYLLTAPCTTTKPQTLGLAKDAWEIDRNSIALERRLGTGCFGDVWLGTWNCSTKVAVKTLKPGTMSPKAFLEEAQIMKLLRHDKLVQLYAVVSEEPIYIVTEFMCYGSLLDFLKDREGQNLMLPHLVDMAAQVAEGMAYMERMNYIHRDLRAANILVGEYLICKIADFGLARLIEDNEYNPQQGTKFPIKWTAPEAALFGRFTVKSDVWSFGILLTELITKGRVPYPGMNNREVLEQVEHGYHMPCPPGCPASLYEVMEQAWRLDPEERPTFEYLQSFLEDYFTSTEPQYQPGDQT
Procedure: FIG. 7A-FIG. 7B show shRNA knockdown of Fgr in vitro and inhibition of activation of Fgr by TL02-59. FIG. 7A) The tdTOMp16+ cell line was transfected with three individual Fgr shRNAs. […] (Phospho-FGR (Tyr412) Rabbit Polyclonal Antibody. Company: Thermo Fisher Scientific, Catalogue #PA5-64583).
FIG. 23A-FIG. 23C. […] FIG. 23A—Irradiated tdTOMp16+ non-senescent (tdTOM−) and senescent (tdTOM+) cells were cultured on the top well of the transwell, and the target C57BL/6 stromal cells were cultured on the bottom well. Cells were treated with either vehicle or 10 nM Fgr inhibitor TL02-59 and after 10 days, target cells were harvested for RNA, and RT-qPCR was performed for TGF-β and Collagen 3 genes. FIG. 23B—Inhibition of Fgr phosphorylation by TL02-59 was confirmed by western blot from the vehicle and TL02-59-treated cell lysates of irradiated senescent (tdTOM+) cells (n=3, *P=<0.05; **P=0.01). […] NS nonsignificant), P values were calculated by t test.
The role of Fgr in fibrosis induction was next investigated by two methods of inhibition: first, pharmacologic inhibition of Fgr was applied by adding the Fgr-specific small-molecule inhibitor TL02-59 (FIG. 23A, FIG. 23B). […] Using the transwell non-contact coculture system, the effect of a specific inhibitor of Fgr TL02-59 (10 nM) on the induction of biomarkers of fibrosis in target cells by tdTOM+ senescent cells was measured for 10 days. […]

Fgr [5] = biological target: Fgr (Homo sapiens, UniProt P09769); settings: cited from earlier work
Fgr (Homo sapiens, UniProt P09769), sequence (P09769 whole entry, species assumed): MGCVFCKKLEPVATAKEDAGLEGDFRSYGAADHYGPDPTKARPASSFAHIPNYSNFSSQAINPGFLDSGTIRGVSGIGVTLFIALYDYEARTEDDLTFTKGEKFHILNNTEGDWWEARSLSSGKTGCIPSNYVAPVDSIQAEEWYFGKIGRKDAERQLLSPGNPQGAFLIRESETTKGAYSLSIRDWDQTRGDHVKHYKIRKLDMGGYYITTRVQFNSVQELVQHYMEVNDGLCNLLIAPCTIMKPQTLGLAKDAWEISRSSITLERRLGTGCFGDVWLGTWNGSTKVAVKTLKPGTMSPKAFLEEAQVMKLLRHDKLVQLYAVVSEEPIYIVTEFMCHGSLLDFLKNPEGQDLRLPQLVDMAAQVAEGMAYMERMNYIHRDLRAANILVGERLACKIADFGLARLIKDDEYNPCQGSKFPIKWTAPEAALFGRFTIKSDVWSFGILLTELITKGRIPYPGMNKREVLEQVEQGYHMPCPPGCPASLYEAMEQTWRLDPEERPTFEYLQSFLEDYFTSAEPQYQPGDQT

Src-family kinase Fgr = Src-family kinase Fgr (Homo sapiens, UniProt P09769); settings: cited from earlier work
Src-family kinase Fgr, sequence (P09769 whole entry): as the sequence (P09769 whole entry, species assumed) above

other similar kinases [6] = experiment: Inhibition of other similar kinases; type: biochemical
[7] = system: tdTOMp16+ red senescent cells; experiment: Chemokine array of media from sorted senescent tdTOMp16+ cells; type: cell-based, mouse; settings: TL02-59 10 nM, 72 hours, FIG. 50
Procedure: FIG. 50. […] Using chemokine array relative amounts of chemokines secreted in the media was measured. (n=2, *, p<0.05, p values were calculated using unpaired t-test).

CCN1CCN(Cc2ccc(NC(=O)c3ccc(C)c(Oc4ncnc5cc(OC)c(OC)cc45)c3)cc2C(F)(F)F)CC1 [TL02-59]
induction of Tgf-β, Collagen 1a1 and collagen 3 in target cells by irradiated mouse lung senescent cells ([1]; TL02-59 10 nM): can block senescent cell induction of these genes | induction of collagen 3 by RIS red lung cells ([1]; cells from 20 Gy irradiated tdTOMp16 mouse lungs): reduced the induction of collagen 3 | concentration required for inhibition of other similar kinases (other similar kinases [2]): 100 to 1000 nM | relative mRNA expression of profibrotic genes (Tgf-β, Ctgf, Collagen 1a1, Collagen 3, Collagen 4), senescence biomarkers (p16, p21) and Fgr in lungs (qPCR) ([3]; 18 Gy, TL02-59 10 mg/kg, 3/week at day 75 for 4 weeks, FIG. 47): reduces profibrotic and biomarkers of senescence | expression of Fgr and p16 proteins in mouse lungs (images) ([3]; irradiated, TL02-59 post irradiation, FIG. 48): led to a reduction of both the proteins | phosphorylation of Fgr (Tyr412) (Fgr [4]; 0.1 μM TL02-59, tdTOMp16+ cell line, FIG. 7B): Inhibition of phosphorylation of Fgr | Fgr phosphorylation in irradiated senescent (tdTOM+) cells, western blot (Fgr [4]; vehicle vs TL02-59 treated cell lysates, FIG. 23): inactivated Fgr; also recorded: inhibited | kinases inhibited at 10 nM concentration (Fgr [5]; 10 nM): inhibits only Fgr | concentration with complete inhibition of Fgr (Fgr [5]): above 10 nM | concentration with partial inhibition of Fgr (Fgr [5]): 0.1 to 1 nM | selectivity for Fgr over other kinases (Fgr [5]): remarkably selective for Fgr; also recorded: Fgr specific in the nanomolar concentration | primary target kinase (Src-family kinase Fgr): primary target | fold greater dose required for inhibition of other similar kinases vs Fgr (other similar kinases [6]): 10 to 100 fold and 10-to-100 fold | secretion of senescence associated secretory chemokines (chemokine array) [7]: reduces secretion of senescence associated secretory chemokines
